This note sets out measurements from patent publication US7223749B2, “Bicyclic heterocycles, pharmaceutical compositions containing these compounds, their use and processes for preparing them” (Boehringer Ingelheim International GmbH, priority 2003, dated 2007).

As usually defined, the IC50 is the concentration that inhibits the measured activity by half. A low value points to greater potency.

Structures are written as SMILES.

The target in the test is T1, human EGF-receptor kinase (Homo sapiens, UniProt P00533).
T1 construct: GST; made in house; host or cells: Sf9 insect cells (Baculovirus)
The experiment in a line: Inhibition of human EGF-receptor kinase (cytoplasmatic tyrosine kinase domain, GST fusion protein, pEY substrate, ELISA readout). The class given is biochemical. As to conditions: cytoplasmatic tyrosine kinase domain (Met 664 to Ala 1186) as GST fusion protein; poly(EY)/bio-pEY substrate; 30 minutes at ambient temperature. The method, then:
The inhibition of human EGF-receptor kinase was determined using the cytoplasmatic tyrosine kinase domain (methionine 664 to alanine 1186, based on the sequence published in Nature 309 (1984), 418). To do this, the protein was expressed in Sf9 insect cells as a GST fusion protein using the Baculovirus expression system.
The enzyme activity was measured in the presence or absence of the test compounds in serial dilutions. The polymer pEY (4:1) produced by SIGMA was used as the substrate. Biotinylated pEY (bio-pEY) was added as the tracer substrate. Every 100 μl of reaction solution contained 10 μl of the inhibitor in 50% DMSO, 20 μl of the substrate solution (200 mM HEPES pH 7.4, 50 mM magnesium acetate, 2.5 mg/ml of poly(EY), 5 μg/ml of bio-pEY) and 20 μl of enzyme preparation. The enzyme reaction was started by the addition of 50 μl of a 100 μM ATP solution in 10 mM magnesium chloride. The dilution of the enzyme preparation was adjusted so that the incorporation of phosphate into the bio-pEY was linear in terms of time and quantity of enzyme. […]
The enzyme assays were carried out at ambient temperature over a period of 30 minutes and were ended by the addition of 50 μl of a stopping solution (250 mM EDTA in 20 mM HEPES pH 7.4). […] The extinction was measured at OD450 nm with an ELISA reader. All data points were measured three times. […]
Background: ELISA stands for enzyme-linked immunosorbent assay.

T1 sequence (P00533 688-1210): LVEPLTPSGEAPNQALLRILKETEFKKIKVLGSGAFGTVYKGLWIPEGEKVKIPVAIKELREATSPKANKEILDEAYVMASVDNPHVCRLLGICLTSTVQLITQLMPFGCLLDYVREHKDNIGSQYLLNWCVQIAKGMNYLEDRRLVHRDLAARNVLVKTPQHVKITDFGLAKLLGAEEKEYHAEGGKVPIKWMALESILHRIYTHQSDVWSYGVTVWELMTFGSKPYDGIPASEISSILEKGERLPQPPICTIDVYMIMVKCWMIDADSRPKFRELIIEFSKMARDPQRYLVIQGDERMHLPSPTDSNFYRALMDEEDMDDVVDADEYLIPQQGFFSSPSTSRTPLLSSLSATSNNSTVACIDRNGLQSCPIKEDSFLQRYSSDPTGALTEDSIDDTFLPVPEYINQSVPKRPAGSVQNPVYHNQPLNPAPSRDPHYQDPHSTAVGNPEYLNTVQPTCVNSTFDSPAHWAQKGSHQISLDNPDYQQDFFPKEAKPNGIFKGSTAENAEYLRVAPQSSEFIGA

Regarding `O=C(/C=C/CN1CCCOCC1)Nc1cc2c(Nc3ccc(F)c(Cl)c3)ncnc2cc1O[C@H]1CCOC1` [Example 1, 4-[(3-chloro-4-fluoro-phenyl)amino]-6-{[4-(homomorpholin-4-yl)-1-oxo-2-buten-1-yl]amino}-7-[(S)-(tetrahydrofuran-3-yl)oxy]-quinazoline], the IC50 amounted to 1.5 nM. That is a single-digit nanomolar value.
